How the values were obtained:
[1] = system: HBCx-14 breast tumor xenograft; conditions: A/C 2/100 or C 100 mg/kg, x2 cycles
Text: Tumor xenografts were generated by direct subcutaneous grafting into immunodeficient mice of human tumor surgical samples with informed written consent of the patients and maintained by serial transplantation. […] They are thus clinically relevant tumor models, as opposed to xenografts produced from tumor cell lines that have been obtained by in vitro culture and often passaged for many years (Fiebig, H. H. et al. Eur J Cancer 40, 802-820, 2004; Marangoni E., Vincent-Salomon A., Auger N. et al. Clin Cancer Res. 2007 Jul. 1; 13:3989-98).
Chemotherapeutic drugs were administered by intraperitoneal route according to the following doses and schedules: adriamycin, 2 mg/kg, q3wk (Doxorubicin®, Teva Pharmaceuticals, France) and Cyclophosphamide, 100 mg/kg, q3wk (Endoxan®, Baxter, France). Irinotecan (Campto®, Pfizer Holding France), 50 mg/kg, q4dx4. Etoposide 12 mg/kg, qdx3. Ifosfamide 90 mg/kg, qdx3. bPARP inhibitor (AZD2281, Sequoia Research Products, UK) at 50 mg/kg (ip; qdx14). A second treatment cycle was performed with PARP inhibitor at 50 mg/kg (ip qdx5) during the nodule phase. Other pharmacological inhibitors are tested and administrated at the nodule phase: JAK1/2 Inhibitor (CP-690550) at 15 mg/kg (po qdx14), Epigallocatechin gallate (ECGC) (Sequoia Research Products, UK) at 30 mg/kg (ip qdx28), HDAC inhibitor (Trichostatine A), Retinoic acid at 50 mg/kg (ip qdx28) (Sigma-Aldrich, France). Breast tumor xenograft models were transplanted into 5-week old female Swiss nude mice, as described above, one tumor being transplanted into 5-10 recipients. When tumors reached a volume of 60-250 mm3, mice were individually identified and randomly assigned to the control or treated groups (12 to 20 mice per group). Tumor volume was evaluated by measuring two perpendicular diameters of the tumor, with a calliper, biweekly during the treatment period and once a week during the follow-up period. The formula TV (mm3)=[length (mm)×width (mm)2]/2 was used, where the length and the width were the longest and the shortest diameters of the tumor, respectively. All animals were weighted biweekly during the treatment period and the follow-up period. Mice were ethically sacrificed when the tumor volume reached 2000 mm3 Individual tumor growth delays (TGD) is calculated as the time in days required for individual tumors to reach 3- to 5-fold the initial median tumor volume. The tumor growth delay index (TGDI) is calculated as the median growth delay in the treated group divided by the median growth delay in the control group. The percentage ratio between the mean tumor volume of a treated group (T) and the mean tumor volume of the control group (C) is calculated.
(§1) Tumors were collected from 5 independent mice at different time points: prior to treatment (=controls with volume<200 mm3); post-treatment residual tumors (=nodules with volume<32 mm3 until minimal palpation); recurrent tumors (=regrowth with volume>62.5 mm3) Tumors or nodules were processed for (1) FFPE (formalin-fixed paraffin-embedded) or for (2) snap frozen samples: samples were cut into 3-4 mm pieces (at least 3 fragments) and snap-frozen in liquid nitrogen, then transferred to −80° C. for storage. Samples were allocated for histology, microdissection and RNA analyses.
Three categories of responders were defined based on the TGDI and T/C values.

[2] = system: Stat1 (total, phospho-Tyr701, phospho-Ser727), Ifi27, Ifi44, Lcn2, Oas1; conditions: T330 breast cancer xenograft; after chemotherapy; compared with A/C combination
Description: as §1

## O=P1(N(CCCl)CCCl)NCCCO1 (centres unmarked) [C, Cyclophosphamide]
[1]
  % Nodules: 100%
  % Tumor Relapse: 67%
  Median Nodule Apparition Time: 11
  Median Time of Relapse: 53
  T/C % D21: 2%
  TGDI: 6.66
  median TGD × 5: 82.00 days
[2]
  total and phosphorylated Stat1 protein (western blotting): same increase in Stat 1 protein amount and phosphorylation level

— patent US20130042333A1, “MARKERS FOR CANCER PROGNOSIS AND THERAPY AND METHODS OF USE” (priority 2011, published 2013)
